Laboratory results: patent publication US7205295B2, “Benzoxazin-3-ones and derivatives thereof as therapeutic agents” (Warner-Lambert Company LLC, priority 2002, dated 2007)

biological target: T1, PI3Kγ (p101/p110γ protein) (Homo sapiens, UniProt P48736); assay: PI3Kγ In Vitro Kinase Assay; format: biochemical; details: purified recombinant p101/p110γ with G protein β1/γ2 subunits; 20 μM ATP, 25 μM PIP2; 20 minutes at room temperature
T1 construct: HA; made in house; host or cells: Spodoptera frugiperda (Sf9) cells, baculovirus co-infection
Method in brief: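 Reactions ran 20 min at room temperature, pairing lipid micelles (25 μM PIP2, 300 μM PE, 0.02% Na-cholate, 10 mM MgCl2) with 20 μM ATP including [γ-32P]ATP. The enzyme was recombinant p101/p110γ (2.7 nM) with G protein β1/γ2 (57.7 nM). [32P]PIP3 product was stopped with H3PO4, filtered and scintillation counted.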

T1 sequence (P48736 whole entry, species assumed): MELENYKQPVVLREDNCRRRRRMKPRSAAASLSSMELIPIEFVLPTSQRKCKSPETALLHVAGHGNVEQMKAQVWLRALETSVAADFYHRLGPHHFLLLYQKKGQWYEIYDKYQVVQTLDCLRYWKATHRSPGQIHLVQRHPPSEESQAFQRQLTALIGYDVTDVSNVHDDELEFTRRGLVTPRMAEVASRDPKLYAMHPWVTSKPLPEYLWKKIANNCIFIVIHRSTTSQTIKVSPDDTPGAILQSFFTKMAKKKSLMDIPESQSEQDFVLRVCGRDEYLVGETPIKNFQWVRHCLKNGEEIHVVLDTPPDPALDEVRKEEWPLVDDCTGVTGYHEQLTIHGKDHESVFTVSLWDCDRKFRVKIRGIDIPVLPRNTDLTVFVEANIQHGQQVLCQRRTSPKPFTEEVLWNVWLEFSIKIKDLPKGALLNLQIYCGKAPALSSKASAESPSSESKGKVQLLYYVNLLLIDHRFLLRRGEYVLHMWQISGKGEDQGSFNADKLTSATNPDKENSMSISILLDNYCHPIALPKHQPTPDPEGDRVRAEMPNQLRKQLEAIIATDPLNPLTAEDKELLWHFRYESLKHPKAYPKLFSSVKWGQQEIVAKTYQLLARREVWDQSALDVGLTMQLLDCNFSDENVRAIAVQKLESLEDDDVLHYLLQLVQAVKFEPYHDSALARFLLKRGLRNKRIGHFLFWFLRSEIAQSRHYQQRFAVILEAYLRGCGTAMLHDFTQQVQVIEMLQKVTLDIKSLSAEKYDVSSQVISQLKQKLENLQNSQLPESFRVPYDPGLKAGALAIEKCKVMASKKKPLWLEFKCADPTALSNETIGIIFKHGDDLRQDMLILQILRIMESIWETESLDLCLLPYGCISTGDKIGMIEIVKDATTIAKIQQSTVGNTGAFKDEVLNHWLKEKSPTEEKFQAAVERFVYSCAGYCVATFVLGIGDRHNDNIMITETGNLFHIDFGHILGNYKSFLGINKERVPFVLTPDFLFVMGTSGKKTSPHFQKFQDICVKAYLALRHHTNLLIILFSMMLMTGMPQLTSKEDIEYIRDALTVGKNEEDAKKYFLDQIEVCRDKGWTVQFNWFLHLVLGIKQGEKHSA
T1 sequence (Q8WYR1 whole entry partner, species assumed): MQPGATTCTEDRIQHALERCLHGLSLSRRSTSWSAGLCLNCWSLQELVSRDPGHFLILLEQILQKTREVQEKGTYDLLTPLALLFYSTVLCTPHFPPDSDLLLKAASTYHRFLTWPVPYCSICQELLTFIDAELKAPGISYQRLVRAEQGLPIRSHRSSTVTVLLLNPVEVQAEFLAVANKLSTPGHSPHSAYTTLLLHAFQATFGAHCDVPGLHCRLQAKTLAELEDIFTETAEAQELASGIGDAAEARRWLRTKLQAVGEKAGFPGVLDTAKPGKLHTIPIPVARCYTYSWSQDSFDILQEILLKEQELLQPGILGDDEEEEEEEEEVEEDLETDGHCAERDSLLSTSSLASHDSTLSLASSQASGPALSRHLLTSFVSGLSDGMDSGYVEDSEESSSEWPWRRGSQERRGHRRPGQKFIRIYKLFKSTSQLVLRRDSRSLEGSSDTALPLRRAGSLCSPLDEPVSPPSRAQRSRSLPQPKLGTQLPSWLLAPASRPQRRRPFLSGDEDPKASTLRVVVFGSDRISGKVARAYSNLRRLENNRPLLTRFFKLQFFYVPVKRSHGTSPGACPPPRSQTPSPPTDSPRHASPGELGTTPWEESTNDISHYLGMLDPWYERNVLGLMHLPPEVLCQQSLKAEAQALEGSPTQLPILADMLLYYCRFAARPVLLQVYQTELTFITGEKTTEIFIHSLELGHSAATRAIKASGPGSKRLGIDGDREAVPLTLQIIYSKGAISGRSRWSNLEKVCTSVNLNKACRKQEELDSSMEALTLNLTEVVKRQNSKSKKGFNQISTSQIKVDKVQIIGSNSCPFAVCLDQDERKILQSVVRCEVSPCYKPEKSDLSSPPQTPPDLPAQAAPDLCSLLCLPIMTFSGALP

| Molecule | IC50 [nM] |
| --- | --- |
| O=C1NC(=S)SC1=Cc1ccc2c(c1)N(Cc1ccncc1)C(=O)CO2 [Example 148, 6-(4-Oxo-2-thioxo-thiazolidin-5-ylidenemethyl)-4-pyridin-4-ylmethyl-4H-benzo[1,4]oxazin-3-one] | 61 |
| C=Cc1cc(CN2C(=O)COc3ccc(C=C4SC(=S)NC4=O)cc32)cc(C(C)(C)C)c1 [Example 56, 4-(3-tert-Butyl-5-vinyl-benzyl)-6-(4-oxo-2-thioxo-thiazolidin-5-ylidenemethyl)-4H-1,4-benzoxazin-3-one] | 18 |
| CC(c1cc(C(C)(C)C)cc(C(C)(C)C)c1)N1C(=O)COc2ccc(C=C3SC(=S)NC3=O)cc21 (stereo not shown) [Example 62, 4-[1-(3,5-Di-tert-butyl-phenyl)-ethyl]-6-(4-oxo-2-thioxo-thiazolidin-5-ylidenemethyl)-4H-1,4-benzoxazin-3-one] | 850 |
| O=C1NC(=S)SC1=Cc1ccc2c(c1)N(Cc1ccc(C=Cc3ccccc3)cc1)C(=O)CO2 [Example 162, 6-(4-Oxo-2-thioxo-thiazolidin-5-ylidenemethyl)-4-(4-styryl-benzyl)-4H-1,4-benzoxazin-3-one] | 53 |
| C/C(=C1/SC(=S)NC1=O)c1ccc2c(c1)N(Cc1ccccc1)C(=O)CO2 [Example 266, 4-Benzyl-6-{1-[4-oxo-2-thioxo-thiazolidin-(5Z)-ylidene]-ethyl}-4H-benzo[1,4]oxazin-3-one] | 1610 |
| COCCN(CCCN1C(=O)COc2c(F)cc(C=C3SC(=S)NC3=O)cc21)CCOC [Example 313] | 35 |
| O=C1NC(=S)SC1=Cc1ccc2c(c1)N(Cc1cc(Br)cc(I)c1)C(=O)CO2 [Example 41, 4-(3-Bromo-5-iodo-benzyl)-6-(4-oxo-2-thioxo-thiazolidin-5-ylidenemethyl)-4H-1,4-benzoxazin-3-one] | 61 |
| O=C1COc2ccc(C=C3NC(=O)NC3=O)cc2N1 [Example 87, 5-(3-Oxo-3,4-dihydro-2H-benzo[1,4]oxazin-6-ylmethylene)-imidazolidine-2,4-dione] | 16100 |
| O=C1NC(=S)SC1=Cc1cc(F)c2c(c1)N(CCc1ccc(Cl)c(Cl)c1)C(=O)CO2 [Example 111, 4-[2-(3,4-dichloro-phenyl)-ethyl]-8-fluoro-6-(4-oxo-2-thioxo-thiazolidin-5-ylidenmethyl)-4H-benzo[1,4]oxazin-3-one] | 14 |
| O=C1NC(=S)SC1=Cc1ccc2c(c1)N(Cc1cnc3ccccc3c1)C(=O)CO2 [Example 323, 6-(4-Oxo-2-thioxo-thiazolidin-5-ylidenemethyl)-4-quinolin-3-ylmethyl-4H-benzo[1,4]oxazin-3-one] | 29 |
| COc1ccc(CN2C(=O)COc3c(F)cc(C=C4SC(=S)NC4=O)cc32)cc1C(F)(F)F [Example 299, 8-Fluoro-4-(4-methoxy-3-trifluoromethyl-benzyl)-6-(4-oxo-2-thioxo-thiazolidin-5-ylidenemethyl)-4H-benzo[1,4]oxazin-3-one] | 6 |
| COC(=O)c1cccc(CN2C(=O)COc3ccc(C=C4SC(=S)NC4=O)cc32)c1 [Example 8, 3-[3-Oxo-6-(4-oxo-2-thioxo-thiazolidin-5-ylidenemethyl)-2,3-dihydro-1,4-benzoxazin-4-ylmethyl]-benzoic acid methyl ester] | 81 |
| COc1cc(CN2C(=O)COc3ccc(C=C4SC(=S)NC4=O)cc32)cc(Cl)n1 [Example 205, 4-(2-Chloro-6-methoxy-pyridin-4-ylmethyl)-6-(4-oxo-2-thioxo-thiazolidin-5-ylidenemethyl)-4H-benzo[1,4]oxazin-3-one] | 32 |
| 4-Methyl-6-(4-oxo-2-thioxo-oxazolidin-5-ylidenemethyl)-4a,8a-dihydro-4H-benzo[1,4]oxazin-3-one, Potassium Salt [Example 204] | 16 |

Second part, the molecule after the results:

| IC50 [nM] | Molecule |
| --- | --- |
| 6 | O=C1NC(=S)SC1=Cc1cc(F)c2c(c1)N(Cc1ccc(CN3CCOCC3)cc1)C(=O)CO2 [Example 71, 8-Fluoro-4-(4-morpholin-4-ylmethyl-benzyl)-6-(4-oxo-2-thioxo-thiazolidin-5-ylidenemethyl)-4H-1,4-benzoxazin-3-one] |
| 45 | CN1C(=O)COc2ccc(C=C3SC(=S)NC3=O)cc21 [Example 2, 4-Methyl-6-(4-oxo-2-thioxo-thiazolidin-5-ylidenemethyl)-4H-1,4-benzoxazin-3-one] |
| 48 | O=C1NC(=O)C(=Cc2ccc3c(c2)N(Cc2ccncc2)C(=O)CO3)S1 [Example 227, 5-(3-Oxo-4-pyridin-4-ylmethyl-3,4-dihydro-2H-1,4-benzoxazin-6-ylmethylene)-thiazolidine-2,4-dione] |
| 23 | COC(=O)c1cc(C)cc(CN2C(=O)COc3ccc(C=C4SC(=S)NC4=O)cc32)c1 [Example 118] |
| 560 | COc1cc(C=C2SC(=S)NC2=O)cc2c1OCC(=O)N2 [Example 6, 8-Methoxy-6-(4-oxo-2-thioxo-thiazolidin-5-ylidenemethyl)-4H-1,4-benzoxazin-3-one] |
| 21 | CCCCN1CCN(Cc2ccc(CN3C(=O)COc4ccc(C=C5SC(=S)NC5=O)cc43)cc2)CC1 [Example 77, 4-[4-(4-Butyl-piperazin-1-ylmethyl)-benzyl]-6-(4-oxo-2-thioxo-thiazolidin-5-ylidenemethyl)-4H-1,4-benzoxazin-3-one] |
| 42 | 4-Ethyl-6-(4-oxo-2-thioxo-thiazolidin-5-ylidenemethyl)-4H-benzo[1,4]oxazin-3-one [Example 139] |
| 52 | CCOC(=O)N1CCN(Cc2ccc(CN3C(=O)COc4ccc(C=C5SC(=S)NC5=O)cc43)cc2)CC1 [Example 241, 4-{4-[3-Oxo-6-(4-oxo-2-thioxo-thiazolidin-5-ylidenemethyl)-2,3-dihydro-benzo[1,4]oxazin-4-ylmethyl]-benzyl}-piperazine-1-carboxylic acid ethyl ester] |
| 7 | COc1ccc(CCCN2C(=O)COc3ccc(C=C4SC(=O)NC4=O)cc32)cc1 [Example 123, 5-{4-[3-(4-Methoxy-phenyl)-propyl]-3-oxo-3,4-dihydro-2H-benzo[1,4]oxazin-6-ylmethylene}-thiazolidine-2,4-dione] |
| 26 | O=C1NC(=S)SC1=Cc1ccc2c(c1)N(CC1CC1)C(=O)CO2 [Example 145, 4-Cyclopropylmethyl-6-(4-oxo-2-thioxo-thiazolidin-5-ylidenemethyl)-4H-benzo[1,4]oxazin-3-one] |
| 45 | CC(C)c1cc(CN2C(=O)COc3ccc(C=C4SC(=S)NC4=O)cc32)cc(C(C)C)c1 [Example 210, 4-(3,5-Diisopropyl-benzyl)-6-(4-oxo-2-thioxo-thiazolidin-5-ylidenemethyl)-4H-benzo[1,4]oxazin-3-one] |
| 5 | Cc1cc(C)cc(CN2C(=O)COc3ccc(C=C4SC(=S)NC4=O)cc32)c1 [Example 14, 4-(3,5-Dimethyl-benzyl)-6-(4-oxo-2-thioxo-thiazolidin-5-ylidenemethyl)-4H-1,4-benzoxazin-3-one] |
| 12 | O=C1NC(=S)SC1=Cc1ccc2c(c1)N(Cc1ccc(CN3CCN(c4ccccc4)CC3)cc1)C(=O)CO2 [Example 35, 6-(4-Oxo-2-thioxo-thiazolidin-5-ylidenemethyl)-4-[4-(4-phenyl-piperazin-1-ylmethyl)-benzyl]-4H-1,4-benzoxazin-3-one] |
| 8 | O=C1NC(=S)SC1=Cc1ccc2c(c1)N(Cc1ccc(CN3CCCCC3)cc1)C(=O)CO2 [Example 19, 4-(4-Piperidin-1-ylmethyl-benzyl)-6-(4-oxo-2-thioxo-thiazolidin-5-ylidenemethyl)-4H-1,4-benzoxazin-3-one] |
